One experiment concerns the target T1, E. feacium DltA (Enterococcus faecium, UniProt Q3XZT7).
T1 sequence (Q3XZT7 1-504): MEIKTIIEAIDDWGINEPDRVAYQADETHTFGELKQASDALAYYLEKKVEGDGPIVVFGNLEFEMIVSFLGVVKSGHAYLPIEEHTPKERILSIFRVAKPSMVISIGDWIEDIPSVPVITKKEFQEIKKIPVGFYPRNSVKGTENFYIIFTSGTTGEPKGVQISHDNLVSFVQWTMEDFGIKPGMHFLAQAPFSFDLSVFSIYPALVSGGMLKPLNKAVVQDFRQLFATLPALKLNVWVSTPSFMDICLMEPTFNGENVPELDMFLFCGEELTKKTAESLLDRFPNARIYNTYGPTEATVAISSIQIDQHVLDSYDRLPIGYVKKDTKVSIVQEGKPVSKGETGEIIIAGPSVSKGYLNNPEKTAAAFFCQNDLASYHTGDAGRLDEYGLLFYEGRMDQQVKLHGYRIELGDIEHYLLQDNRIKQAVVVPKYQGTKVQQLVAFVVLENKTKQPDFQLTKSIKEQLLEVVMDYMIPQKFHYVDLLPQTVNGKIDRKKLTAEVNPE
Put plainly: in vitro DltA activity assay (luminescence, IC50 determination). The class given is biochemical. The procedure: (§1) The effect of the compounds of the invention on DltA enzymes has been based on the measure of their inhibition of DltA activity in vitro. To this end, recombinant proteins DltA were expressed and purified after cloning of the genes of S. aureus, E. faecalis, E. faecium and S. agalactiae as described thereafter. The capacity of the compounds of the invention to inhibit DltA enzymatic activity was assessed using the DltA assays as described below: • The dltA gene was amplified from chromosomal DNA of S. aureus, E. faecalis, E. faecium and S. agalactiae and introduced into E. coli BL21 (Invitrogen, Carlsbad, CA) following manufacturer's instruction. Bacteria were grown at 37°C under aerobic conditions and isopropyl-beta-D-thiogalactopyranoside (IPTG) was added to 0.5-1 mM when OD600 of the bacterial culture had reached 0.5. After a further incubation for 3 hours, cells were harvested by centrifugation. Purification of the recombinant DltA protein was performed by affinity chromatography on nickel-nitrilotriacetic acid (Ni-NTA) column following manufacturer's instructions (Qiagen). Fractions containing recombinant DltA protein were adjusted to 50% glycerol and stored at -20°C until use.
(§2) The binding potency of the inhibitors against DltA enzyme was assessed by IC50 determination in an in vitro DltA activity assay. The assay buffer "AB" contained 50 mM Hepes pH8.0, 10mM MgCl2, 50mM KCI, 0.012% Triton-X100, 10mM DTT and 100nM Myelin-basic protein. The following components were added in a white polystyrene Costar plate up to a final volume of 30µL: 3µL DMSO, or inhibitor dissolved in DMSO and 27µL DltA enzyme in AB. After 30min of preincubation at room temperature, 30µL of Substrates mix in AB were added in each well to a final volume of 60µL. This reaction mixture was then composed of DltA (produced in house from S. aureus, E. faecalis, E. faecium and S. agalactiae), 0.5mM D-Alanine (Sigma), 0.5-5µM ATP (Sigma) and 0.05 u/ml inorganic pyrophosphatase (Sigma) in assay buffer. After typically 1-2hours of incubation at room temperature (conversion rate around 30%), 30µL of the revelation mix were added to a final volume of 90µL, including the following constituents at the respective final concentrations: 10000 u/ml luciferase (Sigma), 30µM D-luciferin (Sigma), 100µM N-acetylcysteamine (Aldrich). Luminescence intensity was immediately measured on a Fluostar Optima (BMG) (excitation 360nm, emission 520nm) and converted into inhibition percentages.
(§3) For compounds interfering with the luminescent signal (quenching), the same experiment without DltA enzyme was performed to allow quenching determination and correction.

In the next experiment the target is T2, S. aureus DltA (Staphylococcus aureus, UniProt Q2FZW6).
T2 construct: made in house; host or cells: E. coli BL21
T2 sequence (Q2FZW6 1-485): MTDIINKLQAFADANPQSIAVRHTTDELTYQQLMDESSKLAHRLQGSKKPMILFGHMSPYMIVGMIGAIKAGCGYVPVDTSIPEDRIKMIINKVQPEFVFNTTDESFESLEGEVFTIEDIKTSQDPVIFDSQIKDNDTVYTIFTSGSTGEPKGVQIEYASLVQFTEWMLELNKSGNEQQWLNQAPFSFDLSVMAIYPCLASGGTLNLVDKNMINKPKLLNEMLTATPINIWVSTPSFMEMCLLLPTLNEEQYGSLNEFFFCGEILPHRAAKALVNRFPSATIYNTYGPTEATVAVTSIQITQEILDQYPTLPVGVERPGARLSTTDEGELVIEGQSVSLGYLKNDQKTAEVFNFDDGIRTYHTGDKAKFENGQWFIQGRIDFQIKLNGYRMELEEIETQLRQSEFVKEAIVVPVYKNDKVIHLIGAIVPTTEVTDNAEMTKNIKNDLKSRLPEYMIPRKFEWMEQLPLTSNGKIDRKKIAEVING
The description is as above. The experiment is classed as biochemical. The protocol:
as §1, §2, §3

The target of the next experiment is T3, E. feacalis DltA (Enterococcus faecalis, UniProt Q830N0).
T3 sequence (Q830N0 1-506): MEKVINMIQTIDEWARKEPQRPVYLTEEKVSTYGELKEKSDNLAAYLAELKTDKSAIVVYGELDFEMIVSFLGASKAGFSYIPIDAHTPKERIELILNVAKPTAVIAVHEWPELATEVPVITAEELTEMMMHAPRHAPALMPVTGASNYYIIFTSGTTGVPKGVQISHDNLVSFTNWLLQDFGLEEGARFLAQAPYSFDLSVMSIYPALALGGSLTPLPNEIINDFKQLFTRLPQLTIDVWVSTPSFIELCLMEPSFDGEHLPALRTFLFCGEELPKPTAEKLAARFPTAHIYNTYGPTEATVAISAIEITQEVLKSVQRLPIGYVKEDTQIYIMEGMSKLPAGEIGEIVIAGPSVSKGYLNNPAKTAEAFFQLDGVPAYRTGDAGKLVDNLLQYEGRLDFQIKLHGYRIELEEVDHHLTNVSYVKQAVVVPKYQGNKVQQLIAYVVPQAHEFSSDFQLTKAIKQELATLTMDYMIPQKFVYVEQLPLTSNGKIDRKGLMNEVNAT
The experiment in a line: biochemical. The protocol:
as §1, with “To” for “The effect of the compounds of the invention on DltA enzymes has been based on the measure of their inhibition of DltA activity in vitro. To”
as §2, §3

For another experiment, the target named is T4, S. Agalactiae DltA (Streptococcus agalactiae serotype III, UniProt Q8VM67).
T4 sequence (Q8VM67 1-511): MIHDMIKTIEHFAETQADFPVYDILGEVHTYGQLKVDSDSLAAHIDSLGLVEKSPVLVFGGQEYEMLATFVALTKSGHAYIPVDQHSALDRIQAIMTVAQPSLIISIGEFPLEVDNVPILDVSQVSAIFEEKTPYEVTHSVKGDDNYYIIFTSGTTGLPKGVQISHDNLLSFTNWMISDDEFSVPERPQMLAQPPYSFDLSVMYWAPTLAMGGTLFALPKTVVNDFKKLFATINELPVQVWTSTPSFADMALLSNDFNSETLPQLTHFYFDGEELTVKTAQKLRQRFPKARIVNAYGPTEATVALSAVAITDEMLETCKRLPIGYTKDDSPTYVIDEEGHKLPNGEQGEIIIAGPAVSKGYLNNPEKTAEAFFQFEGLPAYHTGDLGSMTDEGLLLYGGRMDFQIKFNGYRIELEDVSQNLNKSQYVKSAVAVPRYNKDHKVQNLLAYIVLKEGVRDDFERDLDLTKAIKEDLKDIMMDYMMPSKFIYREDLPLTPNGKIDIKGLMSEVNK
The experiment in a line: biochemical. The procedure: as §1, with “To” for “The effect of the compounds of the invention on DltA enzymes has been based on the measure of their inhibition of DltA activity in vitro. To”
as §2, §3

Setting [1] is: recombinant DltA, 30min preincubation at room temperature, 0.5mM D-Alanine, 0.5-5µM ATP, read-out: E. feacium DltA IC50.

Structures can show the parent of a compound that is named as a salt. Where two headings read alike, the source gives them in different places.

One may read the IC50 as the concentration needed to halve the response being measured. Take `O=c1[nH]cnn2c(-c3ccc4c(c3)ncn4C3CCCCC3)cc(N3CC[C@H](CO)C3)c12` [Example 63, 7-(1-Cyclohexyl-1H-benzoimidazol-5-yl)-5-((S)-3-hydroxymethyl-pyrrolidin-1-yl)-3H-pyrrolo[2,1-f][1,2,4]triazin-4-one]: the 50% inhibitory concentration (IC50) on E. feacium DltA (setting [1]) is 1100 nM; on S. aureus DltA, 460 nM; at E. feacalis DltA, 350 nM; against S. Agalactiae DltA, 25000 nM.
The like results for `CC(C)N1CCC(n2cc(-c3ccc4c(c3)ncn4C3CCCCC3)c3nc[nH]c(=O)c32)CC1` [Example 82, 7-(1-Cyclohexyl-1H-benzimidazol-5-yl)-5-(1-isopropyl-piperidin-4-yl)-3,5-dihydro-pyrrolo[3,2-d]pyrimidin-4-one] were, in that order, 380 nM, 56 nM, 100 nM and 1900 nM.
In the case of `CN1CC=C(c2sc(-c3ccc4c(c3)ncn4C3CCCCC3)c3nc[nH]c(=O)c23)CC1` [Example 38, hydrochloride], the concentration for half-maximal inhibition (IC50) on E. feacium DltA stood at 130 nM; at S. aureus DltA, 130 nM; on E. feacalis DltA, 42 nM; at S. Agalactiae DltA, 910 nM.
`O=c1[nH]cnc2c(-c3ccc4c(c3)ncn4C3CCCCC3)sc(N3C[C@H](CO)[C@@H](CO)C3)c12` [Example 35, 5-((3R,4R)-3,4-Bis-hydroxymethyl-pyrrolidin-1-yl)-7-(1-cyclohexyl-1H-benzoimidazol-5-yl)-3H-thieno[3,4-d]pyrimidin-4-one]: the IC50 on E. feacium DltA (setting [1]) was 93 nM; against S. aureus DltA it was 54 nM; at E. feacalis DltA, 39 nM; against S. Agalactiae DltA, 870 nM.
Consider `O=c1[nH]cnc2c(-c3ccc4c(c3)ncn4C3CCCCC3)sc(N3CCC(CCO)C3)c12` (stereo not shown) [Example 11, 7-(1-Cyclohexyl-1H-benzoimidazol-5-yl)-5-[3-(2-hydroxy-ethyl)-pyrrolidin-1-yl]-3H-thieno[3,4-d]pyrimidin-4-one], for which the half-inhibitory concentration (IC50) on E. feacium DltA (setting [1]) was found to be 190 nM; at S. aureus DltA, 140 nM; on E. feacalis DltA it was 120 nM; against S. Agalactiae DltA it was 5400 nM.
For the molecule `O=c1[nH]cnc2c(-c3ccc4c(c3)ncn4C3CCCCC3)cn(C3CCC(O)C3)c12` (racemic) [Example 71A, 7-(1-Cyclohexyl-1H-benzimidazol-5-yl)-5-(3-hydroxy-cyclopentyl)-3,5-dihydro-pyrrolo[3,2-d]pyrimidin-4-one], the IC50 at E. feacium DltA (setting [1]) is 890 nM; on S. aureus DltA, 360 nM; at E. feacalis DltA, 360 nM; at S. Agalactiae DltA, 2700 nM.
Regarding `O=c1[nH]cnc2c(-c3ccc4c(c3)ncn4C3CCCCC3)cn(C3CCNCC3)c12` [Example 73, 7-(1-Cyclohexyl-1H-benzimidazol-5-yl)-5-piperidin-4-yl-3,5-dihydro-pyrrolo[3,2-d]pyrimidin-4-one], the IC50 stood at 280 nM on E. feacium DltA (setting [1]), 72 nM against S. aureus DltA, 61 nM at E. feacalis DltA and 1000 nM on S. Agalactiae DltA.
`O=c1[nH]cnc2c(-c3ccc4c(c3)ncn4C3CCCCC3)sc(N3CCC(CO)(CO)C3)c12` [Example 13, 5-(3,3-Bis-hydroxymethyl-pyrrolidin-1-yl)-7-(1-cyclohexyl-1H-benzoimidazol-5-yl)-3H-thieno[3,4-d]pyrimidin-4-one]: the IC50 on E. feacium DltA (setting [1]) worked out at 140 nM; on S. aureus DltA, 44 nM; at E. feacalis DltA, 41 nM; on S. Agalactiae DltA, 980 nM.
The like results for `CCn1cnc2cc(-c3sc(N4CC[C@H](CO)C4)c4c(=O)[nH]cnc34)ccc21` [Example 45, 7-(1-ethyl-1H-benzoimidazol-5-yl)-5-((S)-3-hydroxymethyl-pyrrolidin-1-yl)-3H-thieno[3,4-d]pyrimidin-4-one] were, in that order, 390 nM, 130 nM, 70 nM and 3400 nM.
Take `CN(C)CCCn1cc(-c2ccc3c(c2)ncn3C2CCCCC2)c2nc[nH]c(=O)c21` [Example 80, 7-(1-Cyclohexyl-1H-benzimidazol-5-yl)-5-(3-dimethylamino-propyl)-3,5-dihydro-pyrrolo[3,2-d]pyrimidin-4-one]: the concentration for half-maximal inhibition (IC50) at E. feacium DltA (setting [1]) came to 620 nM; on S. aureus DltA, 270 nM; against E. feacalis DltA, 55 nM; against S. Agalactiae DltA, 1500 nM.
